Patent US11291624B2, “Compositions comprising active botanical ingredients” (CONOPCO, INC., priority 2018, dated 2022)

Tested on: MelaKuits reconstructed human pigmented LSE model
Test: Inhibition of melanin in a living skin-equivalent (LSE) model
Assay type: cell-based
Settings: for Melanin content as % of control: UVB-exposed pigmented LSE, the lower the better
Method: Details of the test are as follows:
Materials: • MelaKuits®, a reconstructed human pigmented LSE model, derived from 3D culture of normal human epidermal keratinocytes and melanocytes from Asian donors.
The pigmented LSE model was exposed to UVB (50 mJ/cm^2) for seven consecutive days day at periodic intervals of 24 hours to stimulate the synthesis of melanin. The extracts were applied topically on each LSE model on day 4 and day 6 with an interval of 48 hours for refreshing. For comparison, a blank experiment was carried out in which the LSE was neither exposed to UV radiation nor was any extract applied thereon. A control experiment was also carried out in which the LSE model was exposed to UV radiation, but no other treatment was followed.
On day 8, the appearance of each LSE model was assessed by photographing them. Thereafter, all the models subjected to the test were separated from their respective inserts and placed on a white plastic plate with the stratum corneum side facing up. The luminance (L*) value was read using a spectrophotometer CM700 (Konica-Minolta). For each model, the luminance was measured thrice, and the mean value was calculated for comparison.

O=c1cc(CO)occ1O [Kojic acid]
Melanin content as % of control (75 μM, topical on day 4 and day 6, read on day 8): 77.4 % of control
Effectiveness in reducing melanin content, in words (positive control, Table 2): most effective ingredient

CC1(C)C=Cc2c(ccc3c2OC[C@@H](c2ccc(O)cc2O)C3)O1 [Glabridin]
Melanin content as % of control (2.5 μM): 97.1 % of control
